Columns and labels:
[1] = system: interaction of G-ME2bHLH and V-ND in PC12 20.4 cells; assay: Cre recombinase-based two-hybrid system in PC12 cell line 20.4 with transient addition of TSA, GFP fluorescence; parameters: species or system rat; conditions: 3 μM TSA for 12 h; two days after transfection of G-ME2bHLH and V-ND; without TSA no GFP-positive cells
From the text: FIG. 8 depicts GFP-fluorescence and phase contrast images of the stable PC12 cell line #20.4 two days after transfection with GV, G-ME2bHLH, V-ND and G-ME2bHLH with V-ND, with addition of TSA. […] After cotransfection of the two-hybrid interaction partners V-ND and G-ME2bHLH, GFP fluorescence is likewise detectable under the TSA culturing conditions (bottom left). Under control conditions, transfection of V-ND or G-ME2bHLH, no GFP fluorescence is detectable (center left).
As described in example 4, the PC12 cell line 20.4 expresses all components of the Cre-based reporter system in a completely functional manner. In order to test whether the cell line 20.4 can be utilized for application in the two-hybrid system (see FIG. 2), the known interaction partners described in example 3 were analyzed. Two days after cotransfection of the interaction partners G-ME2bHLH and V-ND, no GFP-positive cells were detectable (see FIG. 7, bottom left). After single transfections of G-ME2bHLH and V-ND, GFP-positive cells were likewise not detectable (see FIG. 7, central figures, left). […] Only after cotransfection of the interaction partners GBR2cc and V-GBR1cc, a multiplicity of GFP-positive cells were detected, after single transfection and cotransfection of the cc deletion mutants, GBR2ccDel and V-GBR1ccDel, no GFP-positive cells were microscopically detectable (see FIG. 9, bottom bar).

PC12 20.4 cells = assay: Cell survival of PC12 20.4 cells after TSA addition (phase contrast images); format: cell-based, rat; conditions: 3 μM TSA for 12 h
Protocol: As described in example 4, the PC12 cell line 20.4 expresses all components of the Cre-based reporter system in a completely functional manner. In order to test whether the cell line 20.4 can be utilized for application in the two-hybrid system (see FIG. 2), the known interaction partners described in example 3 were analyzed. Two days after cotransfection of the interaction partners G-ME2bHLH and V-ND, no GFP-positive cells were detectable (see FIG. 7, bottom left). After single transfections of G-ME2bHLH and V-ND, GFP-positive cells were likewise not detectable (see FIG. 7, central figures, left). […] Therefore, the same two-hybrid analysis was carried out in the following experiments, after transient addition of trichostatin A (3 μM, for 12 h, Sigma) (FIG. 8). […] After single transfections of G-ME2bHLH and V-ND, no GFP-positive cells were detectable (see FIG. 8, central figures, left). […] The TSA concentration with the best ratio of cell survival and nearly background-free detection of the interaction of G-ME2bHLH and V-ND, was […] for 12 h. […] Only after cotransfection of the interaction partners GBR2cc and V-GBR1cc, a multiplicity of GFP-positive cells were detected, after single transfection and cotransfection of the cc deletion mutants, GBR2ccDel and V-GBR1ccDel, no GFP-positive cells were microscopically detectable (see FIG. 9, bottom bar).

CC(/C=C/C(=O)NO)=C\[C@@H](C)C(=O)c1ccc(N(C)C)cc1 [TSA, trichostatin A]
GFP-positive cells detected after transient addition of TSA [1]: a multiplicity of GFP-positive cells were now detected | number of surviving cells (PC12 20.4 cells): lower number of surviving cells

— US8349619B2, “Method for detecting and analyzing protein interactions in-vivo” (Sygnis Bioscience GmbH & Co. KG, priority 2002, dated 2013)
